# Assay results: patent publication EP1487791B1, “A NOVEL ANTIFUNGAL MOLECULE 2-(3,4-DIMETHYL-2,5-DIHYDRO-1H-PYRROL-2-YL)- METHYLETHYL PENTANOATE” (priority 2002, dated 2003)
# Tested on: A. fumigatus
# Assay: Quantification of colony forming units in organs of infected mice
# Assay type: in vivo, Balb/C mice
# Text: In vivo efficacy of the compound against A. fumigatus infection was studied in the Balb/C mice of 6-8 weak of age of either sex, weighing 15-20 g each. The mice model of aspergillosis described by Dixon et al (1989), was used to study the effects of compound on in vivo infection of A. fumigatus.
# The animals were housed in the micro-barrier cages on sterile bedding and fed ad libitum water and food. The mice were divided into 6 groups and each group contained 8-10 animals. The mice were infected experimentally with A. fumigatus. Three days prior to infection with conidia, mice were injected subcutaneously with 3 doses (250.0 mg/kg/day) of cortisone acetate in 400.0 µl of PBS. On the infection day, each mouse received 2x10^7 conidia by nasal instillation of a single droplet of conidial suspension. The animals of this model developed invasive aspergillosis and all the infected animals died within 4-6 days.
# A. fumigatus (190/96) isolate was grown on Sabouraud dextrose agar plates at 37 °C for 4 days. The conidia were collected from the culture plates using PBS (pH 7.2) containing 0.05% Tween 80 (Sigma Chemicals) and the suspension was filtered through sterile glass wool. The conidia were pelleted by centrifugation at 2000 rpm and re-suspended in PBS, pH 7.2. The number of conidia, was counted and adjusted to 1x10^8 conidia/ml. The viability of the conidia was determined by plating the dilutions of suspensions on Sabouraud dextrose agar.
# The dosing of the animals (cortisone treated and challenged) with compound in 6 different groups was initiated within 30 min after challenge with A. fumigatus conidia. Group I: The mice were treated orally with 7 doses of 25.0 mg/kg/day of the compound. Group II: The animals infected with A. fumigatus conidia were given 50.0 mg/kg/day of the compound for 7 days orally. Group III: The animals in this group were given 7 oral doses of 100.0 mg/kg/day of the compound. Group IV: In this group of animals, 7 oral doses of the compound (200.0 mg/kg/day) were given. Group V: The animals of this group were treated with 7 doses of 400.0 mg/kg/day orally over a period of 7 days. Group VI: The animals of this group acted as control and were treated orally with 7 doses of 400 µl PBS containing solvent.
# (§1) The mice were kept under constant watch and those getting moribund, dying or survived up to 10 days were sacrificed. The autopsy was performed on the mice who had died to remove their organs for quantification of colony forming units (CFU). The lungs, livers and kidneys of the mice were removed aseptically, placed in sterile PBS (pH 7.2) and homogenized with teflon pestle mortar. The CFU in the animals were determined by plating 10 fold dilutions of organ homogenates on Sabouraud dextrose agar containing 0.05% triton X-100. The triton X-100 limited the colony size and thus greatly facilitated colony counting (Frosco, 1992). After an incubation for 48 h at 37 °C, colonies were counted and results were expressed as CFU per organ. The survival time and CFU indicating the fungal burden in various organs were considered
# as §1, with “The survival time and CFU indicating the fungal burden in various organs were considered” left out
# [1] = Group I, 25.0 mg/kg body weight oral
# [2] = Group II, 50.0 mg/kg body weight oral
# [3] = Group III, 100.0 mg/kg body weight oral
# [4] = Group IV, 200.0 mg/kg body weight oral
# [5] = Group V, 400.0 mg/kg body weight oral
smiles,measurement,setting,value
"CCCCC(=O)OC(C)CC1NCC(C)=C1C (stereo not shown) [PC-1, 2-(3,4-dimethyl-2,5-dihydro-1H-pyrrol-2-yl)-1-methylethyl pentanoate]",colony counts as compared to controls,"400 mg/kg body weight, p < 0.001",reduced the colony counts significantly
same,number of CFUs in the kidneys,100.0 to 400.0 mg/kg body weight,significant reduction
same,CFU/Organs (Mean+ SD) Kidney,[1],1402.5+350.09 CFU/Organs
same,CFU/Organs (Mean+ SD) Liver,[1],255.0+72.45 CFU/Organs
same,CFU/Organs (Mean+ SD) Lung,[1],907.5+246.09 CFU/Organs
same,CFU/Organs (Mean+ SD) Kidney,[2],1040.5+441.78 CFU/Organs
same,CFU/Organs (Mean+ SD) Liver,[2],290.6+135.58 CFU/Organs
same,CFU/Organs (Mean+ SD) Lung,[2],900.0+230.29 CFU/Organs
same,CFU/Organs (Mean+ SD) Kidney,[3],733.3+394.69 CFU/Organs
same,CFU/Organs (Mean+ SD) Liver,[3],216.7+108.97 CFU/Organs
same,CFU/Organs (Mean+ SD) Lung,[3],650.1+171.85 CFU/Organs
same,CFU/Organs (Mean+ SD) Kidney,[4],683.3+352.67 CFU/Organs
same,CFU/Organs (Mean+ SD) Liver,[4],225.0+91.85 CFU/Organs
same,CFU/Organs (Mean+ SD) Lung,[4],525.0+251.56 CFU/Organs
same,CFU/Organs (Mean+ SD) Kidney,[5],225.0+157.39 CFU/Organs
same,CFU/Organs (Mean+ SD) Liver,[5],165.0+117.84 CFU/Organs
same,CFU/Organs (Mean+ SD) Lung,[5],180.0+127.75 CFU/Organs
same,effect on the CFUs in the lung tissue,doses of 25.0 and 50.0 mg/kg body weight,did not have any effect
same,effect of the compound on CFUs in liver,liver,very less effect
